Laboratory results: PMC12408501, “A novel fluorescent probe, triphenylamine rhodamine-3-acetic acid (mRA) for the detection of Amyloid-β aggregates in Alzheimer's disease” (Frontiers in Neuroscience, 2025)

Target: T1, Amyloid-β (Aβ1-42) aggregates (Homo sapiens, UniProt P05067)
T1 construct: gene APP; Aβ1-42 (aggregates)
Test: fluorescence enhancement titration (supported by far-UV CD and van't Hoff analysis)
Assay type: binding

T1 sequence (P05067 672-713): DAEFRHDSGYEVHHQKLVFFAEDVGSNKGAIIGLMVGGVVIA

Kd: 341 ± 17 nM
SMILES: O=C(O)CN1C(=O)/C(=C/c2ccc(N(c3ccccc3)c3ccccc3)cc2)SC1=S [mRA, triphenylamine rhodamine-3-acetic acid]
